Measured values published in the CheMixHub ionic liquid set.

Assay: xn = mol fraction of the nth substance listed
Conditions: 101.3 kPa

CCCCCCCC[n+]1ccccc1.F[B-](F)(F)F + O
Conditions | viscosity [mPa·s]
288.15 K, x2 = 0 | 447
288.15 K, x2 = 0.1 | 289
288.15 K, x2 = 0.184 | 192.6
288.15 K, x2 = 0.324 | 121.3
288.15 K, x2 = 0.477 | 89
288.15 K, x2 = 0.67 | 50.65
288.15 K, x2 = 0.758 | 37.8
293.15 K, x2 = 0.1 | 213
293.15 K, x2 = 0.184 | 145.6
293.15 K, x2 = 0.324 | 94.1
298.15 K, x2 = 0.67 | 32.69
298.15 K, x2 = 0.758 | 23.24
308.15 K, x2 = 0 | 134.8
308.15 K, x2 = 0.783 | 15.11
313.15 K, x2 = 0.562 | 19.43
313.15 K, x2 = 0.67 | 18.67
318.15 K, x2 = 0 | 81.6
318.15 K, x2 = 0.324 | 32.19
323.15 K, x2 = 0.324 | 27.26
328.15 K, x2 = 0.1 | 38.44
328.15 K, x2 = 0.184 | 30.98
328.15 K, x2 = 0.758 | 8.61
333.15 K, x2 = 0 | 45.28
333.15 K, x2 = 0.1 | 32.1
333.15 K, x2 = 0.184 | 26.18
333.15 K, x2 = 0.758 | 7.63
338.15 K, x2 = 0.67 | 9.23
343.15 K, x2 = 0.324 | 15.05
343.15 K, x2 = 0.67 | 7.99
348.15 K, x2 = 0 | 27.77
348.15 K, x2 = 0.477 | 10.05
